Measurements published in US20230063321A1, “Methods for Treating Inflammatory Bowel Diseases with alpha4beta7 Integrin Antagonists” (Protagonist Therapeutics, Inc., priority 2020, published 2023).
In brackets after ≈: the same amount, converted by molar mass. Entries after “also recorded” stand apart in the source; their conditions may differ. Where two headings read alike, the source gives them in different places. Marks after values point to notes of the source that are not given here. Numbered stars: 1 amine (or outer) side, 2 acyl side, 3 side chain; on linkers, the order of the positions; unused ones are H or OH. Bridge positions count the residues as written; N and C are the ends. Square brackets hold non-standard residues; d marks the D form. Peptide text beside a SMILES is read from it. I, II: the chains in the order shown. ξ: configuration not given here. Phe(4-tBu) = CC(C)(C)c1ccc(C[C@H](N)C(=O)O)cc1; Diglycolyl = O=C(COCC(=O)[*:2])[*:1]; NMeR = CN[C@@H](CCCNC(=N)N)C(=O)O; β3hE = N[C@@H](CCC(=O)O)CC(=O)O; Thr(3ξ) = CC(O)[C@H](N)C(=O)O; X1 = O=C(c1ccccc1C[*:2])[*:1]; Pen = CC(C)(S)[C@H](N)C(=O)O

Tests used:
[1] = Study 1 pharmacokinetics in healthy male volunteers (liquid solution); conditions: for median time to peak plasma concentration: single dose 300 mg
Experimental: (§1) Dose escalation proceeded from 100 mg, 300 mg, 1000 mg, 1400 mg. Subjects in the 300 mg dose cohort received treatment in the fasted state on one occasion and following a high fat meal on a second occasion in a crossover fashion. The high fat meal consisted of two eggs fried in butter, two strips of bacon, two slices of toast with butter, four ounces of hash brown potatoes and 240 ml of whole milk. During Part 1, subjects refrained from food and drink except water for 10 hours before and for four hours after dosing with the exception of subjects in the 300 mg dose cohort during the fed treatment.
(§2) Part 2 was a randomized, placebo-controlled, double-blind multiple ascending dose study in 50 male subjects divided equally into 5 cohorts. […] Doses evaluated in Part 2 included 100 mg, 300 mg and 1000 mg. During Part 2, two cohorts of subjects (100 mg and 300 mg) received food approximately 30 minutes prior to each dose and another two cohorts of subjects (300 mg and 100 mg) refrained from food for 10 hours before and for 1 hour after dosing.
(§3) Study 1: The single and multiple ascending dose phase of the study consisted of sequential dose escalations in 10 subject per dose cohort. […] Dose solutions were formulated in 50 mM phosphate buffer pH 7.4 and were prepared weekly by a qualified pharmacist.
(§4) Blood samples for pharmacokinetics were collected predose and for 48 hours postdose following single doses. In the multiple ascending dose phase, blood samples were obtained on Days 1-3 and 14-16; on Days 8 samples were obtained predose, 4, and 12 hours. On Day 10 of the MAD, subjects were required to collect all urine for the 0-6, 6-12, 12-18, and 18-24 hour intervals postdose and on Day 11 subjects were required to collect fecal samples.
(§5) The drug and internal standard were extracted from the matrix by a protein precipitation procedure. The limit of quantitation was 0.2 ng/mL, 20 ng/mL, and 100 ng/mL in plasma, urine, and feces, respectively. […] Coefficient of determinations for the calibration curves were at least 0.99 for all matrices. The interassay accuracy (% bias) ranged from −2.2% to 1.0% for plasma, −3.8% to 9.0% for urine and −5.0 to 5.2% for feces. Interassay precision (% CV) ranged from 3.7% to 7.7% for plasma, 2.8% to 7.0% for urine, and 1.2% to 5.2% for feces.
(§6) Pharmacokinetic parameters were estimated by noncompartmental methods using Phoenix WinNonlin (Certara, Princeton N.J.). Peak plasma concentration (Cmax) and time to peak plasma concentration (Tmax) were observed values. The elimination rate was estimated from the slope of the least-squares regression on the terminal log-linear phase. Area under the plasma concentration-time curve from time zero to the last quantifiable concentration (AUCt) was estimated by a linear trapezoidal method and was extrapolated to infinity (AUC∞) by dividing the last quantifiable concentration b the elimination rate.

[2] = Oral bioavailability in cynomolgus monkeys; conditions: cynomolgus monkey, in vivo
[3] = male, human, in vivo; for Ctrough: po
Experimental: as §1, §2, §3, §4, §5, §6

clinical = conditions: male, human, in vivo; for AUC(0-inf): AUCinf (ng · h/mL); for AUC(0-t): AUCt (ng · h/mL); for AUC: AUCtau (ng · h/mL); for Cmax: Cmax (ng/mL)
Experimental: as §1, §2, §3, §4, §5, §6

[4] = target: T1, memory CD4+ T cells expressing α4β7 / recombinant MAdCAM1 (Homo sapiens, UniProt P13612+P26010); assay: Potency against memory CD4+ T cells expressing α4β7 to recombinant MAdCAM1; format: cell-based; conditions: cells isolated from human PBMCs
T1 construct: endogenous in cells

[5] = Safety and tolerability in healthy volunteers; conditions: for tolerability: single and multiple oral doses
[6] = Systemic absorption in animal studies; format: in vivo; conditions: oral
α4β7 receptor occupancy = target: T2, α4β7 receptor occupancy (Homo sapiens, UniProt P13612+P26010); assay: Plasma concentration-receptor occupancy relationship, sigmoid Emax (Hill) model; conditions: in vivo
T2 construct: the amount of α4β7 expression on the cell surface of circulating lymphocytes; endogenous in cells; host or cells: heparinized whole blood of healthy volunteers

[7] = tested on: integrin β7, integrin α4 and CCR9 on cultured CD3+ cells; assay: Gut homing receptor expression on T cells cultured with ATRA; format: cell-based, B6.SJL mice; conditions: 100 and 1000 nM in culture
Experimental: Purified CD3+ cells were isolated from B6.SJL (CD45.1+) donor mice and cultured in the presence of anti-CD3/anti-CD28 beads and IL-2 to induce T cell activation and proliferation. In some culture conditions, Compound A and/or ATRA were added. To track the cells in vivo, ATRA− and ATRA+ cells were labeled with CMFDA and CTFR respectively. These labeled cells were then co-injected into C57BL/6 (CD45.2+) recipient mice.
Eighteen (18) B6.SJL (CD45.1+) donor mice were acclimated for 3 to 9 weeks before the start of the study and were 11 to 16 weeks old at culture setup (Day 0). On Day 0, spleen and lymph node cells were isolated from donor mice and pooled. CD3+ cells were enriched using […] Technologies kit catalog number 19851. Purity of enriched cells was confirmed by flow cytometry.
Approximately 44% of the cells were then cultured at 1.5×10^6/mL in the presence of anti-CD3/CD28 beads (Dynabeads, ThermoFisher 11453D), with a 1:1 cell to bead ratio (ATRA−, per Table 4 below). […] All-trans retinoic acid (ATRA) was then added to these cultures at a concentration of 0.1 μM.
On Day, 1 IL-2 was added to all cultures to reach a concentration of 30 U/mL.

T2 sequence (P13612 34-1032): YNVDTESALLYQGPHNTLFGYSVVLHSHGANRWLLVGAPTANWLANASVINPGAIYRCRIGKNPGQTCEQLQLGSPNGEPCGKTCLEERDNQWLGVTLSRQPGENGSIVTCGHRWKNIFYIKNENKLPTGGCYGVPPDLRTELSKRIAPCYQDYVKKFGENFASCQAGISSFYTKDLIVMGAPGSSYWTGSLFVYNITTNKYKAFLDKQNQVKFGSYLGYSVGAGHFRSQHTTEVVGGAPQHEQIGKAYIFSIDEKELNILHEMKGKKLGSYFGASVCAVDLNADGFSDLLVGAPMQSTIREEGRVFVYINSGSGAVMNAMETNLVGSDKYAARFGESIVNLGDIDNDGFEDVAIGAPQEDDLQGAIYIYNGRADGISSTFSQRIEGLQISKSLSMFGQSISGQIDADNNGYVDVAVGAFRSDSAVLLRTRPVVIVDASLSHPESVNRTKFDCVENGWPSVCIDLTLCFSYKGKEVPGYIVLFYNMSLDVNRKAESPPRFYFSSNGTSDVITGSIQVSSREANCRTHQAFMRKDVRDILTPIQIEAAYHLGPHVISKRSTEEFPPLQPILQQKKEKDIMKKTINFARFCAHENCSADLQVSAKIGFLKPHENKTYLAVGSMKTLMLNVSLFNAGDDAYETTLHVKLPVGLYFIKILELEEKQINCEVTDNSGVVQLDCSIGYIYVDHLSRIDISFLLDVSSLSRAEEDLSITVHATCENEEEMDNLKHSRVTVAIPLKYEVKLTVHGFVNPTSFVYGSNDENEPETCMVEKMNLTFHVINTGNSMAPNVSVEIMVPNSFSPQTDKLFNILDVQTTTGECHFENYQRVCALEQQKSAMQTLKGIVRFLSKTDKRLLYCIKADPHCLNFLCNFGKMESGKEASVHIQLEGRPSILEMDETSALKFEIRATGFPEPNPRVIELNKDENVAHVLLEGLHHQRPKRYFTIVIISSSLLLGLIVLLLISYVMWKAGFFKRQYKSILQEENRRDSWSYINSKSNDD
T2 sequence (P26010 20-798): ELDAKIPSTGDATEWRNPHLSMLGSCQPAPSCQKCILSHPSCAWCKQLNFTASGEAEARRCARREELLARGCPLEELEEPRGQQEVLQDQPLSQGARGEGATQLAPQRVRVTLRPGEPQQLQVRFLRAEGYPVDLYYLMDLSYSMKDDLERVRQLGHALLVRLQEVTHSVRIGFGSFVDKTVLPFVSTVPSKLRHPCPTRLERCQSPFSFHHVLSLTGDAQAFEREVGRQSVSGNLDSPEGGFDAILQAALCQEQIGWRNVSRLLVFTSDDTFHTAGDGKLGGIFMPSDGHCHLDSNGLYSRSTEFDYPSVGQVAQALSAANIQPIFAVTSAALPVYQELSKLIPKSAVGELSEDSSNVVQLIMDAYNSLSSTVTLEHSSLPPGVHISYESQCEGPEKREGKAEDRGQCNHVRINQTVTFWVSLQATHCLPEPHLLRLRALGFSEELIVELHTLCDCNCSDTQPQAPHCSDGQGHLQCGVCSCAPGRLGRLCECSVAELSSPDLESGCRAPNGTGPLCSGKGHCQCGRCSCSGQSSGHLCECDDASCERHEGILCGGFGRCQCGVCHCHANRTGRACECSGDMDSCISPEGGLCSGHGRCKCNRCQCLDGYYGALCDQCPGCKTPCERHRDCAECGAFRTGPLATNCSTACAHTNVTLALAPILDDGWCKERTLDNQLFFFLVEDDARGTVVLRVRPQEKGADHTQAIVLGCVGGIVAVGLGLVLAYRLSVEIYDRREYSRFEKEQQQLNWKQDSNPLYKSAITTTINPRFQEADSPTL
T1 sequence (P13612 34-1032): as the sequence (P13612 34-1032) above
T1 sequence (P26010 20-798): as the sequence (P26010 20-798) above

CC(C)C[C@@H]1NC(=O)[C@H](C(C)O)NC(=O)[C@H](CC(=O)O)NC(=O)[C@H](CO)NC(=O)[C@H](CCCNC(=N)N)N(C)C(=O)c2ccccc2CSC(C)(C)[C@@H](C(=O)N[C@@H](Cc2ccc(C(C)(C)C)cc2)C(=O)N[C@@H](CCC(=O)O)CC(=O)N[C@H](CCCCNC(=O)COCC(=O)NCCCC[C@@H](NC(=O)C[C@H](CCC(=O)O)NC(=O)[C@H](Cc2ccc(C(C)(C)C)cc2)NC(=O)[C@H]2NC(=O)[C@H](CC(C)C)NC(=O)[C@H](C(C)O)NC(=O)[C@H](CC(=O)O)NC(=O)[C@H](CO)NC(=O)[C@H](CCCNC(=N)N)N(C)C(=O)c3ccccc3CSC2(C)C)C(=O)O)C(=O)O)NC1=O (stereo partly drawn) [Compound A, ((2-Benzyl)-(N-Me-R)-Ser-Asp-Thr-Leu-Pen-(Phe(4-tBlu))-(β-homo-Glu)-(D-Lys)-OH)2 (SEQ ID NO: 5) and linker-DIG diglycolic acid] (I: [NMeR]SD[Thr(3ξ)]L[Pen][Phe(4-tBu)][β3hE][dK]-OH / II: [NMeR]SD[Thr(3ξ)]L[Pen][Phe(4-tBu)][β3hE][dK]-OH; linker I:9-II:9 via Diglycolyl; linker I:N-I:6, II:N-II:6 via X1)
accumulation ([1]; once daily): approximately 0.9 fold
median time to peak plasma concentration ([1]; meal 60 minutes after dosing): 2 h
median time to peak plasma concentration ([1]; meal 90 minutes after dosing): 4 h
accumulation ([1]; twice-daily): ~1.6 fold
bioavailability [2]: < 1%
AUCt (ng · h/mL) ([3]; 100 mg): 12.9 ± 7.27^ ng · h/mL
AUCinf ([3]; 300 mg): 0.0463 ± 0.0192 µg·h/mL
AUCinf (ng · h/mL) ([3]; 300 mg): 43.9 ± 13.0^d ng · h/mL
Cmax (ng/mL) ([3]; 300 mg): 4.72 ± 1.85^ ng/mL
AUCt ([3]; 450 mg): 0.132 ± 0.106 µg·h/mL
AUCtau ([3]; 450 mg): 0.0721 ± 0.0547 µg·h/mL
Cmax ([3]; 450 mg): 0.00598 ± 0.00161 µg/mL
AUCinf ([3]; 900 mg): 0.16 ± 0.0965 µg·h/mL
AUCt ([3]; 900 mg): 0.14 ± 0.0744 µg·h/mL
AUCtau ([3]; 900 mg): 0.14 ± 0.0744 µg·h/mL
Cmax ([3]; 900 mg): 0.0228 ± 0.0169 µg/mL
Ctrough ([3]; 450 mg): 0.00325 ± 0.0035 µg/mL
Ctrough ([3]; 900 mg): 0.00178 ± 0.0023 µg/mL
AUC(0-inf) (clinical; 100 mg): 0.0165 µg·h/mL
AUC(0-inf) (clinical; 300 mg): 0.0576 ± 0.0236 µg·h/mL
AUC(0-t) (clinical; 450 mg): 0.0776 ± 0.0371 µg·h/mL
AUC (clinical; 450 mg): 0.0415 ± 0.0107 µg·h/mL
Cmax (clinical; 450 mg): 0.00996 µg/mL
AUC(0-inf) (clinical; 900 mg): 0.176 ± 0.0985 µg·h/mL
AUC(0-t) (clinical; 900 mg): 0.159 ± 0.0705 µg·h/mL
AUC (clinical; 900 mg): 0.159 ± 0.0705 µg·h/mL
Cmax (clinical; 900 mg): 0.0142 µg/mL
AUC(0-inf) (clinical; 1000 mg): 0.151 ± 0.0317 µg·h/mL
AUC(0-t) (clinical; 1000 mg): 0.138 ± 0.0337 µg·h/mL
Cmax (clinical; 1000 mg): 0.0153 ± 0.00411 µg/mL
AUC(0-inf) (clinical; 1400 mg): 0.26 µg·h/mL
AUC(0-t) (clinical; 1400 mg): 0.257 ± 0.173 µg·h/mL
Cmax (clinical; 1400 mg): 0.0235 µg/mL
IC50 [4]: 0.265 nM
maximally tolerated dose, multiple dose (highest dose tested) ([5]; healthy volunteers): 1000 mg
maximally tolerated dose, single dose (highest dose tested) ([5]; healthy volunteers): 1400 mg
subjects reporting AEs ([5]; multiple doses): Thirty
total AEs ([5]; multiple doses): 68 AEs
QTc prolongation ([5]; single and multiple doses): no evidence of QTc prolongation was observed
tolerability [5]: generally well tolerated
tolerability ([5]; listed as COMPOUND A): safe and well tolerated
TEAEs in subjects who received drug ([5]; single ascending dose phase): 21 events
subjects with TEAEs who received drug ([5]; single ascending dose phase): 12 subjects
dose-limiting toxicities ([5]; single doses up to 1400 mg, multiple up to 1000 mg): no dose-limiting toxicities observed
systemic absorption [6]: < 1%
IC50 (α4β7 receptor occupancy; read-out: estimated IC50 for receptor occupancy (converted)): 0.251 nM
IC80 (α4β7 receptor occupancy; read-out: estimated IC80 for receptor occupancy): 5.9 ng/mL (≈ 2.14 nM)
expression of CCR9, ATRA+/Compound A vs ATRA+/DMSO cultures [7]: did not appear to be affected
expression of integrin α4, ATRA+/Compound A vs ATRA+/DMSO cultures [7]: lower
proportion of integrin β7+ cells, ATRA+/Compound A vs ATRA+/DMSO cultures [7]: lower proportion; also recorded: smaller proportion
